Measured values reported in patent US20250195520A1, “COMBINATION THERAPY USING A PTPN11 INHIBITOR AND AN EGFR INHIBITOR” (NAVIRE PHARMA, INC., priority 2021, published 2025).
Entries after “also recorded” stand apart in the source; their conditions may differ.

What was measured:
[1] = system: NCI-H1975 (C797S+) tumors; assay: NCI-H1975 (C797S+) tumor model, tumor volume; format: in vivo, mouse
[2] = Plasma exposure by LC-MS/MS in the HCC827 xenograft study; details: for Formula (10b) Plasma concentration: 6-8 hours post the final dose of formula (10b) 100 mg/kg QD, mean ± SD
Excerpt: (§1) Blood collection for pharmacokinetic analysis. Blood from live animals for pharmacokinetic (PK) analyses was obtained via the lateral saphenous vein. The mouse was placed in a restraint tube and the hind leg immobilized in the extended position. Resting the foot of the animal on a solid surface, a sterile 25g needle (BD Microlance 3) was inserted into the saphenous vein on the top of the foot. The needle was removed and the blood collected using an EDTA coated capillary blood tube (Microvette CB 300 K2E) by capillary action to a volume of 100 μL. The tube was inverted several times to distribute the EDTA evenly and then centrifuged at 13,000 rpm, 4° C. (VWR Micro Star 17R) for 5 minutes to generate plasma. The supernatant (plasma) was carefully transferred to a 1.5 mL tube and stored at −80° C.
For each analysis, 25 μL of plasma sample was precipitated with 200 μL of acetonitrile containing imipramine (70 ng/mL) as an internal standard.
(§2) The detection conditions of the mass spectrometer were as follows: capillary voltage, 3 kv; cone voltage, 50 ev; collision energy, 25 ev; source temperature, 150° C.; desolvation temperature, 400° C.; desolvation gas flow, 1000 L/hr; cone gas glow, 0.15 mL/min. […] The injection volume was 5 μL. The LC mobile phase A was 0.1% acetic acidwater and B was 0.1% acetic acid-acetonitrile. […] The column temperature was 40° C. […] All data were processed using the MAssLynx v. 4.0 software.

[3] = system: DUSP6 mRNA (MAPK pathway signaling) in HCC4006-OsiR cells; assay: In vitro pharmacodynamic assay, Taqman qRT-PCR of DUSP6 in HCC4006-OsiR cells; format: cell-based, human; details: osimertinib 100 nM, formula (10b) 3 μM, 4-hour, 48-hour, 7-day treatment
Procedure: In vitro pharmacodynamic assay—Taqman qRT-PCR assay. The HCC4006-OsiR cells were plated in 6-well plates (Corning #353046) in 2 mL media and allowed to adhere overnight. […] Four hours later, 4-hour samples were harvested by removing media and lysing cells in each well with 350 μL RLT lysis buffer (Qiagen #79216) with 1% 2-mercaptoethanol. Samples were processed either right way or stored at −20° C. until further analysis. On day 3 and day 8, 48-hour samples and 7-day samples were harvested in the same way. Cells harvested at these two timepoints were switched to fresh media containing compounds 24 hours before sample harvesting.
RNA was extracted from lysates using RNeasy mini RNA isolation kit (Qiagen #74106). Isolated RNA was quantified using Nanodrop 8000 (Thermo Fisher). cDNA was synthesized using high capacity cDNA reverse transcription kit (Thermo Fisher #4368813) with 1 μg total RNA per reaction on a BioRad Tetrad2 thermal cycler (25° C. for 10 min, 37° C. for 120 min, 85° C. for 5 min then hold at 4° C.). The cDNA was further diluted 1:10 using ddH2O. Quantitative real-time PCR was conducted using the following Taqman probes and Taqman universal master mix II without UNG (Thermo Fisher #4440040) on QuantStudio 6 in 384-well format (Thermo Fisher), following vendor's protocols. Each well contains a target probe of interest conjugated to FAM dye (DUSP6, Thermo Fisher Assay ID Hs01044001_m1), and an endogenous control conjugated to VIC dye (human RPLPO, Thermo Fisher #4326314E). Each cDNA was run in three technical replicates.
The ΔΔCt method was used to analyze the qRT-PCR data. […] To calculate fold change, the relative mRNA levels of each sample were normalized to that in DMSO treated samples (fold change for DMSO treated samples was set at “1”). Calculations were done in Microsoft Excel and the graphs were generated in GraphPad Prism 8.0.

[4] = system: MPAS-plus signature (MAPK pathway) in HCC827-ER1 tumors; assay: RNA sequencing (QuantSeq), MPAS-plus signature in HCC827-ER1 xenograft tumors; format: in vivo, mouse; details: for effect on MPAS-plus signature: across timepoints
Procedure: (§3) In vivo modeling, treatment and data analysis. […] Dosing started ˜3 weeks after the subcutaneous implantation of the tumor cells. Dosing volume was 5 mL/kg for each compound, and was adjusted based on individual mouse weight. Dosing and sample harvesting followed the schedule below. There was a 6-hour interval between the morning dose and the afternoon dose, and tumor/plasma samples were harvested at three timepoints during the 24-hour dosing cycle.

[5] = Plasma concentration by LC-MS/MS in mice bearing HCC827-ER1 tumors (PK/PD study)
Procedure: as §3
as §1, with “μL.” for “μL. The tube was inverted several times to distribute the EDTA evenly and then centrifuged at 13,000 rpm, 4° C. (VWR Micro Star 17R) for 5 minutes to generate plasma. The supernatant (plasma) was carefully transferred to a 1.5 mL tube and stored at −80° C.”
The tube was inverted several times to distribute the EDTA evenly and then centrifuged at 13,000 rpm, 4° C. (VWR Micro Star 17R) for 5 minutes to generate plasma. The supernatant (plasma) was carefully transferred to a 1.5 mL tube and stored at −80° C.
as §2

[6] = system: HCC827-ER1 subcutaneous tumors; assay: HCC827-ER1 subcutaneous xenograft, tumor volume; format: in vivo, mouse; details: for Number of regressions: regressions/animals remaining
Procedure: (§4) Cell lines. The HCC827 cell line was purchased from ATCC. […] The cells were cultured in RPMI-1640 medium (Sigma #RO883)+10% FBS (Sigma #F7524)+2 mM L-glutamine (Sigma #59202C) in 37° C. tissue culture incubator with 5% CO2.
(§5) Test animals. Female athymic nude mice (Envigo UK, Hsd: Athymic Nude-Foxn1nu) were utilized in this experiment. Animals were between 5 and 6 weeks of age at time of xenograft implantation. Animal welfare complies with the UK Animals Scientific Procedures Act 1986 (ASPA) in line with Directive 2010/63/EU of the European Parliament and the Council of 22 Sep. 2010 on the protection of animals used for scientific purposes. All experimental data management and reporting procedures were in strict accordance with applicable Crown Bioscience UK Guidelines and Standard Operating Procedures.
(§6) In vivo modeling, treatment and data analysis. For xenograft studies with the HCC827 and HCC827-ER1 cells, 5 million cells in 200 μL Matrigel (Corning #354234) were injected subcutaneously into the left flank of 5˜6 weeks old female athymic nude mice (Envigo UK). […] Dosing started ˜3 weeks post the subcutaneous implantation of the tumor cells. Dosing volume was 5 mL/kg for each compound, and was adjusted based on individual mouse weight from the daily measurements. Tumor volume was measured twice a week.
(§7) Data were analyzed using Microsoft Excel and GraphPad Prism 8.0. Day 0 was the day before treatment started. Body weight change was calculated based on the following formulas.

[7] = Body weight in the HCC827-ER1 xenograft study; details: Day 15
Procedure: In vivo modeling, treatment and data analysis. […] Dosing started ˜3 weeks post the subcutaneous implantation of the tumor cells. Dosing volume was 5 mL/kg for each compound, and was adjusted based on individual mouse weight from the daily measurements. Tumor volume was measured twice a week.
as §7
BWi and BW0 are the body weight of an individual mouse on measurement day I and on day 0, respectively.

[8] = system: HCC827 subcutaneous tumors; assay: HCC827 subcutaneous xenograft, tumor volume; format: in vivo, mouse
Procedure: as §4, §5, §6, §7

[9] = HCC827 xenograft, formula (10b) 100 mg/kg QD, osimertinib 5 mg/kg QD, PO, 21 days

Structure (SMILES): Cc1c(N2CCC3(CC2)CO[C@@H](C)[C@H]3N)nc(C)n(-c2cccc(Cl)c2Cl)c1=O (atropisomer, axis not shown; (Ra)) [Formula (10b), 6-((3S,4S)-4-amino-3-methyl-2-oxa-8-azaspiro[4.5]decan-8-yl)-3-(Ra)-(2,3-dichlorophenyl)-2,5-dimethylpyrimidin-4 (3H)-one]
- tumor growth (tumor volume) [1]: suppresses the growth; also recorded: robust tumor regression
- Formula (10b) Plasma concentration ([2]; HCC827 xenograft model): 14.1 ± 5.6 µM
- Formula (10b) Plasma concentration ([2]; HCC827 xenograft model, listed as formula (10b)): 14.1 µM
- DUSP6 mRNA levels [3]: reduces the transcript levels of MAPK pathway signature gene DUSP6; also recorded: potently suppressed DUSP6 mRNA levels at all three timepoints tested
- mRNA levels of the MPAS-plus genes ([4]; 6-hour and 8-hour after formula (10b) administration): potently suppressed the mRNA levels of the MPAS-plus genes
- effect on MPAS-plus signature [4]: suppresses the MPAS-plus signature
- Formula (10b) Plasma concentration ([5]; 6 hours and 8 hours after dosing, 100 mg/kg, monotherapy and in combination with osimertinib): 30 to 50 µM
- 10(b) plasma concentration ([5]; 24 hr post (10b) (18 hr post osimertinib), formula (10b) 100 mg/kg PO, mean ± SD): 1.34 ± 0.24 µM
- concentration at 6 h ([5]; female, athymic nude, mouse, plasma, oral, 100 mg/kg, 10(b) plasma concentration, 6 hr post (10b) (24 hr post osimertinib), formula (10b) 100 mg/kg PO, mean ± SD): 47400 ± 5200 nM
- concentration at 8 h ([5]; female, athymic nude, mouse, plasma, oral, 100 mg/kg, 10(b) plasma concentration, 8 hr post (10b) (2 hr post osimertinib), formula (10b) 100 mg/kg PO, mean ± SD): 35800 ± 9100 nM
- concentration at 24 h ([5]; female, athymic nude, mouse, plasma, oral, 100 mg/kg, 10(b) plasma concentration, 24 hr post (10b) (18 hr post osimertinib), formula (10b) 100 mg/kg PO, mean ± SD): ~1000 nM
- TGI ([6]; Day 15, HCC827-ER1 xenograft, formula (10b) 100 mg/kg QD, osimertinib 5 mg/kg QD): 84%
- Number of regressions ([6]; Day 15, HCC827-ER1 xenograft): 0/4
- tumor growth (tumor volume) ([6]; HCC827-ER1 xenograft, formula (10b) 100 mg/kg QD, osimertinib 5 mg/kg QD, PO, 21 days): suppresses the growth of the HCC827-ER1 tumors; also recorded: tumor stasis
- Mean body weight change [7]: +6.3%
- tumor growth (tumor volume) [8, 9]: suppresses the growth of the HCC827 subcutaneous tumors; also recorded: tumor stasis

Structure (SMILES): C=CC(=O)Nc1cc(Nc2nccc(-c3cn(C)c4ccccc34)n2)c(OC)cc1N(C)CCN(C)C [Osimertinib]
- osimertinib plasma concentration ([2]; 24 hours post the final dose of osimertinib 5 mg/kg QD, HCC827 xenograft model, quantitation limit 2 nM): BQL
- concentration at 24 h ([2]; athymic nude, mouse, in vivo, 5 mg/kg): < 2 nM
- DUSP6 mRNA levels [3]: did not suppress DUSP6 mRNA levels
- effect on MPAS-plus signature [4]: little effect on the MPAS-plus signature
- osimertinib plasma concentration ([5]; 2 hr post osimertinib (8 hr post (10b)), osimertinib 5 mg/kg PO, mean ± SD): 681 ± 277 nM
- osimertinib plasma concentration ([5]; 18 hr post osimertinib (24 hr post (10b)), osimertinib 5 mg/kg PO, mean ± SD): low nanomolar range
- osimertinib plasma concentration ([5]; 24 hr post osimertinib (6 hr post (10b)), osimertinib 5 mg/kg PO, quantitation limit 2 nM): BQL
- concentration at 2 h ([5]; female, athymic nude, mouse, in vivo, 5 mg/kg, osimertinib plasma concentration, 2 hr post osimertinib (8 hr post (10b)), osimertinib 5 mg/kg PO, mean ± SD): ~700 nM
- concentration at 18 h ([5]; female, athymic nude, mouse, in vivo, 5 mg/kg, osimertinib plasma concentration, 18 hr post osimertinib (24 hr post (10b)), osimertinib 5 mg/kg PO, mean ± SD): 2.1 ± 0.14 nM
- concentration at 24 h ([5]; female, athymic nude, mouse, in vivo, 5 mg/kg, osimertinib plasma concentration, 24 hr post osimertinib (6 hr post (10b)), osimertinib 5 mg/kg PO, quantitation limit 2 nM): < 2 nM
- Number of regressions ([6]; Day 15, HCC827-ER1 xenograft): 0/4
- TGI ([6]; mouse, in vivo): 64%
- tumor growth (tumor volume) ([6]; mouse, in vivo): continued to grow during the treatment period
- Mean body weight change [7]: +1.0%
- tumor growth (tumor volume) [8, 9]: tumor stasis
- tumor growth (tumor volume) ([8]; mouse, in vivo): robust tumor regression
